Assay results: ChEMBL document CHEMBL4689842, “EUbOPEN Chemogenomics Library wave 1” (2021)

Legend:
Type in all cases: toxicity, cell-based
Fibroblast = assay: Incucyte cell viability with human fibroblast; details: 10 µM, compound concentration 10 uM
U2OS = assay: Incucyte cell viability with U2OS; details: human, 10 µM, compound concentration 10 uM
HEK-293T = assay: Incucyte cell viability with HEK293T; details: human, 10 µM, compound concentration 10 uM
[1] = 0 h, replicate number 2, timepoint 0 hours
[2] = 6 h, replicate number 1, timepoint 6 hours
[3] = 6 h, replicate number 2, timepoint 6 hours
[4] = 12 h, replicate number 1, timepoint 12 hours
[5] = 18 h, replicate number 1, timepoint 18 hours
[6] = 24 h, replicate number 1, timepoint 24 hours
[7] = 0 h, replicate number 1, timepoint 0 hours
[8] = 12 h, replicate number 2, timepoint 12 hours
[9] = 24 h, replicate number 2, timepoint 24 hours
[10] = 18 h, replicate number 2, timepoint 18 hours
Further: filed as whole numbers so only -1 and 0 and 1 occur.

Row | Structure (SMILES) | Growth Rate (Fibroblast; [2]) | Growth Rate (Fibroblast; [3]) | Growth Rate (Fibroblast; [4]) | Growth Rate (Fibroblast; [5]) | Growth Rate (Fibroblast; [6]) | Growth Rate (U2OS; [1]) | Growth Rate (U2OS; [2]) | Growth Rate (U2OS; [3]) | Growth Rate (U2OS; [4]) | Growth Rate (U2OS; [5]) | Growth Rate (U2OS; [6]) | Growth Rate (HEK-293T; [7]) | Growth Rate (HEK-293T; [2]) | Growth Rate (HEK-293T; [4]) | Growth Rate (HEK-293T; [5]) | Growth Rate (HEK-293T; [6]) | Growth Rate (U2OS; [7]) | Growth Rate (U2OS; [10]) | Growth Rate (Fibroblast; [7]) | Growth Rate (Fibroblast; [10]) | further results
1 | O=C(O)c1ccc(-c2coc3ncc(-c4ccccc4)cc23)cc1Cl | 1 | 0 | 0 | 0 | 0 | 0 | 1 | 0 | 1 | 1 | 1 | 0 | 0 | 0 | 0 | 0 |  |  |  |  | Growth Rate (Fibroblast; [1]): 0; Growth Rate (HEK-293T; [1]): 1; Growth Rate (HEK-293T; [3]): 1
2 | CC[C@@H]1[C@H](F)C(=O)N[C@@H]1COc1nccc2cc(C(N)=O)c(OC)cc12 [ZIMLOVISERTIB] | 0 |  | 0 | 0 | 0 |  | 0 | 1 | 0 | 0 | 0 | 0 |  |  |  |  | 0 |  |  |  | Growth Rate (Fibroblast; [1]): 0; Growth Rate (HEK-293T; [8]): 1; Growth Rate (HEK-293T; [9]): 1
3 | CCn1cc(-c2cccc(C(F)(F)F)c2)c2sc(C(=N)NC3CCS(=O)(=O)CC3)cc2c1=O | 0 |  | 0 | 0 | 0 | 0 | 1 |  | 0 | 0 | 0 |  | 0 | 0 | 0 | 0 |  | 1 |  |  | Growth Rate (Fibroblast; [9]): 1; Growth Rate (U2OS; [9]): 1
4 | CCCc1nc2c(C)cc(-c3nc4ccccc4n3C)cc2n1Cc1ccc(-c2ccccc2C(=O)O)cc1 | 1 |  | 0 | 1 | 0 |  |  | 1 | 1 | 1 | 1 | 0 | 0 | 0 | 0 | 0 | 0 |  | 0 |  | Growth Rate (Fibroblast; [8]): 1; Growth Rate (U2OS; [9]): 0
5 | CC(=O)Nc1c(C(C)=O)c(=O)n(C)c2nc(-c3ccc(Cl)cc3Cl)c(-c3ccc(Cl)cc3)cc12 [NAPHTHYRIDINONE] | 1 | 0 | 0 | 0 | 0 | 0 |  | 1 | 0 | 0 | 0 | 0 | 0 | 0 | 0 | 0 |  | 1 | 0 |  | Growth Rate (U2OS; [9]): 1; Growth Rate (HEK-293T; [3]): 1
6 | COc1ccc(Cn2ccc3ccc(C(=O)NO)cc32)cc1 |  | 1 |  | 1 | 1 | 1 | 0 |  | 1 | 1 | 0 | 0 |  |  |  |  | 0 |  | 0 | 0 | Growth Rate (Fibroblast; [8]): 1; Growth Rate (U2OS; [8]): 0; Growth Rate (HEK-293T; [1]): 1
7 | Cc1cccc([C@H](C)c2c[nH]cn2)c1C.Cl [DEXMEDETOMIDINE HYDROCHLORIDE] |  |  |  |  | 1 |  |  | 0 | 1 | 0 | 1 | 0 | 0 | 0 | 0 | 0 | 0 | 1 | 0 | 1 | Growth Rate (Fibroblast; [8]): 1
8 | CCC(=O)Nc1cccc(Oc2nc(Nc3ccc(N4CCN(C)CC4)cc3OC)ncc2Cl)c1 |  |  | 0 | 0 | 0 |  | 0 | 1 | 0 | 0 | 0 |  | 0 | 0 | 0 | 0 | 0 | 1 |  |  | 
9 | CNCCC(Oc1ccc(C(F)(F)F)cc1)c1ccccc1.Cl (centres undefined) [FLUOXETINE HYDROCHLORIDE] | 1 | 0 | 0 | 1 | 1 |  |  | 1 |  | 1 | 1 |  | 0 | 0 | 0 | 0 |  |  | 0 | 0 | Growth Rate (Fibroblast; [9]): 0; Growth Rate (U2OS; [8]): 1; Growth Rate (HEK-293T; [1]): 0; Growth Rate (HEK-293T; [3]): 1; Growth Rate (HEK-293T; [8]): 1
10 | Nc1nc(NCc2ccccc2)nc(-c2ccccc2CO)n1 [Ogerin] | 0 |  | 0 | 0 | 0 | 0 |  | 1 | 1 | 1 | 1 | 1 | 0 | 1 | 1 | 0 |  |  | 1 |  | Growth Rate (HEK-293T; [1]): 0; Growth Rate (HEK-293T; [3]): 1; Growth Rate (HEK-293T; [9]): 1
11 | Cc1c(C(=O)NC2CCCCC2)sc2nc3ccc(N)cc3n12.Cl | 0 |  | 1 |  | 1 |  | 1 | 0 | 1 | 1 | 1 | 0 | 0 | 0 | 0 | 0 | 0 |  | 0 | 1 | 
12 | CN(C)[C@@H]1CCN(c2cc(-c3ccccc3)nc3ccnn23)C1 [(R)-ZINC-3573] | 0 |  | 1 | 1 | 1 |  |  | 0 | 1 | 0 | 1 | 0 | 1 | 1 | 1 | 1 |  | 1 | 0 | 0 | Growth Rate (U2OS; [8]): 0; Growth Rate (HEK-293T; [9]): 0
13 | COc1ccc(CNC(=O)c2cc(-c3cncc(Cl)c3)cnc2-c2ccccn2)nc1OC [MK-1064] | 0 |  | 0 | 1 | 0 |  |  | 0 | 1 | 1 | 1 | 0 | 0 | 1 | 0 | 1 | 0 | 0 | 0 |  | Growth Rate (Fibroblast; [9]): 1; Growth Rate (HEK-293T; [8]): 0; Growth Rate (HEK-293T; [9]): 0
